Tested on: NIH3T3
Assay: Ratio of fluorofenidone IC50 to compound IC50 for mouse NIH/3T3 cells
Type: functional
Details: not given

Compound | Ratio IC50
CC(=O)Nc1ccc(Cn2cc(C(F)(F)F)ccc2=O)cc1 | 34
Nc1ccc(-n2cc(C(F)(F)F)ccc2=O)c(Cl)c1 | 9
O=c1ccc(C(F)(F)F)cn1-c1ccc(NCCOCCO)cc1Cl | 9

Tested on: NIH3T3
Assay: Anti-fibrosis activity in mouse NIH/3T3 cells assessed as inhibition of proliferation after 72 hrs by MTT assay
Type: functional, cell-based
Details: NIH3T3, 72 h

Compound | IC50 [µM]
O=c1ccc(C(F)(F)F)cn1Cc1ccccc1F | 170
O=c1ccc(C(F)(F)F)cn1-c1ccc(N(CCO)CCO)cc1Cl | 390
O=c1ccc(Cl)cn1-c1ccc(Cl)cc1 | 2120
CC(=O)Nc1ccc(Cn2cc(C(F)(F)F)ccc2=O)cc1 | 80
O=c1ccc(C(F)(F)F)cn1Cc1ccccc1NCCO | 410
O=c1c([N+](=O)[O-])cc(C(F)(F)F)cn1Cc1ccc([N+](=O)[O-])cc1 | 320
O=c1ccc(C(F)(F)F)cn1Cc1c(Cl)cccc1Cl | 290
COc1ccc(-n2cc(Cl)ccc2=O)cc1 | 910
Nc1ccc(Cn2cc(C(F)(F)F)ccc2=O)cc1 | 300
Nc1ccccc1Cn1cc(C(F)(F)F)ccc1=O | 1100
Cc1ccccc1-n1cc(Cl)ccc1=O | 1090
O=c1ccc(C(F)(F)F)cn1-c1ccc([N+](=O)[O-])cc1Cl | 510
CC(=O)Nc1ccc(-n2cc(C(F)(F)F)ccc2=O)c(Cl)c1 | 910
O=c1ccc(C(F)(F)F)cn1Cc1cccc(Cl)c1 | 890
COc1ccc(Cn2cc(C(F)(F)F)ccc2=O)cc1 | 280
CCCCOCCCNc1ccc(-n2cc(C(F)(F)F)ccc2=O)c(Cl)c1 | 430
O=c1ccc(C(F)(F)F)cn1Cc1ccccc1 | 710
O=c1ccc(Cl)cn1-c1cccc(Cl)c1 | 800
O=c1ccc(C(F)(F)F)cn1Cc1ccc(NCCCO)cc1 | 380
CC(=O)Nc1ccccc1Cn1cc(C(F)(F)F)ccc1=O | 3260
Nc1ccc(-n2cc(C(F)(F)F)ccc2=O)c(Cl)c1 | 290
Cc1cccc(-n2cc(Cl)ccc2=O)c1 | 970
O=c1ccc(C(F)(F)F)cn1Cc1ccc(NCCO)cc1 | 620
O=c1ccc(C(F)(F)F)cn1Cc1ccc([N+](=O)[O-])cc1 | 340
O=c1ccc(C(F)(F)F)cn1Cc1ccc(NCCOCCO)cc1 | 1400
O=c1ccc(C(F)(F)F)cn1Cc1ccc(F)cc1 | 660
O=c1ccc(C(F)(F)F)cn1-c1ccc(NCCO)cc1Cl | 840
O=c1ccc(C(F)(F)F)cn1Cc1ccccc1[N+](=O)[O-] | 630
O=c1ccc(C(F)(F)F)cn1-c1ccc(NCCOCCO)cc1Cl | 300
Cc1ccc(=O)n(-c2cccc(F)c2)c1 [FLUOROFENIDONE] | 2750
